Experimental data from ChEMBL document CHEMBL5365447, “Pronucleotides of 2',3'-Dideoxy-2',3'-Didehydrothymidine as Potent Anti-HIV Compounds” (J Med Chem, 2023).
pEC50: −log10 of the molar value. Calls of active or inactive are those of the source. The calls are words filed in the database; no cut-off is given here.

Legend:
[1] = Prodrug conversion in pH 7.3 phosphate buffer assessed as ((2S,5R)-5-(5-methyl-2,4-dioxo-3,4-dihydropyrimidin-1(2H)-yl)-2,5-dihydrofuran-2-yl)methyl tri-hydrogen diphosphate formation by measuring half life in presence of pig liver esterase by HPLC analysis; assay type: ADME
[2] = system: Human immunodeficiency virus 2; experiment: Antiviral activity against HIV-2 ROD infected in wild-type human CEM/0 cells assessed as inhibition of virus-induced cytopathic effect incubated for 4 to 5 days by light microscopic analysis; assay type: functional, organism-based; details: Human immunodeficiency virus 2, ROD, CCRF-CEM
[3] = target: DNA polymerase beta (Homo sapiens) (UniProt P06746); experiment: Substrate activity at human DNA polymerase beta measured after 4 hrs by electrophoresis based primer extension assay
[4] = system: Human immunodeficiency virus 1; experiment: Potency index, ratio of 3'-deoxy-2',3'-dehydrothymidine EC50 to compound EC50 for antiviral activity against HIV-1 HE infected in wild-type human CEM/0 cells; assay type: functional
[5] = Chemical stability of the compound in phosphate buffer assessed as half life at pH 7.3 by HPLC analysis; assay type: physicochemical
[6] = system: Human immunodeficiency virus 2; experiment: Antiviral activity against HIV-2 ROD infected in thymidine kinase-deficient human CEM cells assessed as inhibition of virus-induced cytopathic effect incubated for 4 to 5 days by light microscopic analysis; assay type: functional, organism-based; details: Human immunodeficiency virus 2, ROD, CCRF-CEM
[7] = system: Human immunodeficiency virus 1; experiment: Antiviral activity against HIV-1 HE infected in wild-type human CEM/0 cells assessed as inhibition of virus-induced cytopathic effect incubated for 4 to 5 days by light microscopic analysis; assay type: functional, organism-based; details: Human immunodeficiency virus 1, HE, CCRF-CEM
[8] = Cytotoxicity against human CEM cells assessed as reduction in cell viability incubated for 4 to 5 days by light microscopic analysis; assay type: toxicity, cell-based; details: CEM cells (CCRF-CEM), time 4-5 day
[9] = target: T1, DNA polymerase alpha catalytic subunit (Homo sapiens) (UniProt P09884); experiment: Substrate activity at human DNA polymerase alpha measured after 4 hrs by electrophoresis based primer extension assay
T1 sequence (whole entry): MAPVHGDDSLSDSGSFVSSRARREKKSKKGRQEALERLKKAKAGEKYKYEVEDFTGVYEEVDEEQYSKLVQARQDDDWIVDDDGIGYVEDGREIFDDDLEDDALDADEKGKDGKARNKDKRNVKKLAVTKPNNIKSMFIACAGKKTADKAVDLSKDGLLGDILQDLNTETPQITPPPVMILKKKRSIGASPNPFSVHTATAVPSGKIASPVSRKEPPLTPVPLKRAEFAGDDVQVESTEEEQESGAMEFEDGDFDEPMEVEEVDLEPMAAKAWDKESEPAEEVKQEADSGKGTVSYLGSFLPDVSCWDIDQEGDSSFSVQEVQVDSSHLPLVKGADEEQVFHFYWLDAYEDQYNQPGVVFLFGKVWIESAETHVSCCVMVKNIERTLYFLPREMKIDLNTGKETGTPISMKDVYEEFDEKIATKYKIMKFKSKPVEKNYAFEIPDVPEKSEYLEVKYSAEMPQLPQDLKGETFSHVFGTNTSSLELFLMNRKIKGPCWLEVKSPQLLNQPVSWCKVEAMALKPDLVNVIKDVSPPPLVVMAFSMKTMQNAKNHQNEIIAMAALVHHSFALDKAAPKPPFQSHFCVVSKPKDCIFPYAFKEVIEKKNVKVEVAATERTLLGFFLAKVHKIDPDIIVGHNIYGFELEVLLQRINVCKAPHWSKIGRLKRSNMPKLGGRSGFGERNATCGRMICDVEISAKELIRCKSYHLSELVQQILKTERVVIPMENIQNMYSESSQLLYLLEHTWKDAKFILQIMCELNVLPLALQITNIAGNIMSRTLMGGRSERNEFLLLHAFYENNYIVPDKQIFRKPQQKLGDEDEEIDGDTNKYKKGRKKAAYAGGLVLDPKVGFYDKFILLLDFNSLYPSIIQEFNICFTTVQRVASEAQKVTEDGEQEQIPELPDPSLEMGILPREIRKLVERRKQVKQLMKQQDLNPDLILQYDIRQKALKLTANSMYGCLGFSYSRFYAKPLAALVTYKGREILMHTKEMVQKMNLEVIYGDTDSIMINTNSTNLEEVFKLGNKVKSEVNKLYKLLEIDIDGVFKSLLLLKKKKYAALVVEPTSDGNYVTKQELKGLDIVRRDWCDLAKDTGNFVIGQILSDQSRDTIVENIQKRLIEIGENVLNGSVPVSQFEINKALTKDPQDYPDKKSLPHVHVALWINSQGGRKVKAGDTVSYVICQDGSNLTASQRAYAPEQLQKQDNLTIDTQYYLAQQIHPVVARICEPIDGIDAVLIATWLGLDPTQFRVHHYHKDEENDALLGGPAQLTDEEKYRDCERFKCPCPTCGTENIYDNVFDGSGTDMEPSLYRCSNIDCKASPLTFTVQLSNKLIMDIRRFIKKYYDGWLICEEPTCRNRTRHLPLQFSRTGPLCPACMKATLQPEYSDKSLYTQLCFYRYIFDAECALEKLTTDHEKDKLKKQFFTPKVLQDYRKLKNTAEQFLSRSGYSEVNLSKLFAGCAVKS

With CCCCCCCCCCCCCCCCCCP(=O)(OC)OP(=O)(O)OP(=O)(O)OC[C@@H]1C=C[C@H](n2cc(C)c(=O)[nH]c2=O)O1.N.N (some centres undefined) the t1/2 [1] was > 6.25 days, the pEC50 [2] was 7.10 and the Activity [3] was “inactive”. The “Ratio EC50” value [4] was 4, the half-life [5] was 27.2 days and the pEC50 [6] was 6.32. For the same compound, the pEC50 [7] was 7.29, the CC50 [8] was 40000 nM and the Activity [9] was “inactive”.
